Data from ChEMBL document CHEMBL5352401, “Novel cudraisoflavone J derivatives as potent neuroprotective agents for the treatment of Parkinson's disease via the activation of Nrf2/HO-1 signaling” (Eur J Med Chem, 2022).
The source made the active and inactive calls. No cut-off for these calls is given here.

What was measured:
PC-12 [1] = assay: Neuroprotective activity against 6-OHDA-induced cytotoxicity in rat PC-12 cells at 10 to 30 uM for 4 hrs followed by exposure to 6-OHDA measured after 24 hrs by MTT assay; type: functional, cell-based; conditions: dose 10-30 µM, time 28.0 hrs
PC-12 [2] = assay: Cytotoxicity in rat PC-12 cells assessed as cell viability measured upto 30 uM for 24 hrs by MTT assay; type: functional, cell-based
PC-12 [3] = assay: Neuroprotective activity against 6-OHDA-induced cytotoxicity in rat PC-12 cells for 4 hrs followed by exposure to 6-OHDA measured after 24 hrs by MTT assay; type: functional, cell-based; conditions: dose 0.1-30 µM, time 28.0 hrs
PC-12 [4] = assay: Cytotoxicity in rat PC-12 cells assessed as cell viability measured at 30 uM for 24 hrs by MTT assay relative to control; type: functional; conditions: read-out: Activity
PC-12 [5] = assay: Cytotoxicity in rat PC-12 cells assessed as cell viability incubated for 24 hrs by MTT assay; type: functional, cell-based; conditions: PC-12, 24 h
[6] = Neurotoxicity in rotenone induced at rat PC-12 cells assessed as cell viability at 30 uM pretreated for 4 hrs followed by rotenone addition measured after 24 hrs by MTT assay (reference value: 53.4 +/- 2.6%); type: toxicity, cell-based; conditions: time 28 hrs, read-out: Activity
[7] = Neurotoxicity in rotenone induced at rat PC-12 cells assessed as cell viability pretreated with compound for 4 hrs followed by rotenone addition measured after 24 hrs by MTT assay; type: toxicity, cell-based

## COc1cccc(-c2coc3cc(O)c4c(c3c2=O)OC(C)(C)C(O)C4)c1 (configuration not stated)
PC-12 [1]
  Activity: Active
PC-12 [2]
  Activity: inactive
PC-12 [3]
  Activity: Dose-Dependent Effect
PC-12 [4]
  viability at 30 µM: 86%
PC-12 [5]
  IC50: 8 µM
[6]
  viability at 30 µM: 80.3%
[7]
  IC50: 5.5 µM
